Converted amounts (≈) assume the structure as drawn. “And” between values parts separate entries of the source, which are not always exact repeats. Equal entries are not always repeated. Where two headings read alike, the source gives them in different places.
Tests used:
[1] = target: T1, HsDHODH (Homo sapiens, UniProt Q02127); assay: Selectivity assay: HsDHODH single-dose inhibition (DCIP reduction); assay type: biochemical
T1 construct: made in house
Procedure, shortened: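 Single-dose format, run in triplicate: His-purified HsDHODH (20 nM final) started by adding reaction buffer, absorbance at 610 nm (DCIP) recorded for 60 s at 3-s intervals. Initial rates converted to percent of no-compound control activity.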

[2] = test system: Leishmania braziliensis promastigotes; assay: Leishmanicidal activity, promastigote growth (SYBR Green, 72 h); assay type: cell-based, Leishmania (V.) braziliensis (MHOM/BR/1975/M2904); settings: L. braziliensis promastigotes, max 200 μM
Procedure, shortened: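 Cultures at 4 × 10^6 parasites/mL were exposed 72 h to serially decreasing compound levels, top 200 μM, with final DMSO 0.5% and medium-only control.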

[3] = Cell viability / cytotoxicity assay (PrestoBlue, 72 h); assay type: cell-based; settings: human; THP-1 cell line, 72 h, max 200 μM; read-out: CC50
Procedure, shortened: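 Viability was measured with PrestoBlue fluorescence (560/590 nm, 2 h) after 72 h compound exposure at 37 °C. Test concentrations descended from 200 μM. The THP-1 monocytes had first been differentiated with 150 ng/mL phorbol myristate acetate for 48 h, then rested 24 h.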

[4] = in vitro
Protocol: Solutions of the compounds were prepared in duplicate by diluting the stock solutions (10 mM) in phosphate buffered saline (PBS) pH 7.4 at a final concentration of 10 μM (5% DMSO). The solutions diluted in PBS pH 7.4 were then added to the donor portion of the plate (300 μL/well), while in the acceptor portion PBS pH 7.4 (200 μL/well) was added. The two portions of the plate were then coupled, and the system was incubated for 6 h at room temperature. Samples of the initial donor solution (T0) were collected at the beginning (T0) and stored at 5 °C. The final concentrations of compounds in the donor, acceptor and T0 wells were quantified by LC-MS/MS.

[5] = Kinetic solubility assay in PBS pH 7.4; assay type: physicochemical; settings: kinetic from dmso stock, 1% DMSO
Protocol: The plate was incubated for 2 h at 25 °C. The precipitates on the incubation plate were removed by filtration and the filtrates were quantified by LC-MS/MS. Calibration curves were prepared for each compound by using 5–6 points. Samples were analyzed by UV–vis.

[6] = for Raw data: analyte peak area, T=0: 0 min; for Raw data: analyte peak area, T=0 / Raw data: analyte peak area, T=5 / Raw data: analyte peak area, T=10 / Raw data: analyte peak area, T=20 / Raw data: analyte peak area, T=30 / Raw data: analyte peak area, T=60: raw LC-MS area; for Raw data: analyte peak area, T=5: 5 min; for Raw data: analyte peak area, T=10: 10 min; for Raw data: analyte peak area, T=20: 20 min; for Raw data: analyte peak area, T=30: 30 min; for Raw data: analyte peak area, T=60: 60 min
[7] = in vitro; settings: microsomes; for microsomal CLint at 1 μM / remaining at 5 min, 1 μM: male, CD1, mouse; for remaining at 5 min, 1 μM / remaining at 10 min, 1 µM / remaining at 20 min, 1 µM / remaining at 0.5 h, 1 µM / remaining at 1 h, 1 µM: pH 7.4, % Remaining; for remaining at 5 min, 1 μM: T=5 min; for remaining at 10 min, 1 µM / remaining at 20 min, 1 µM / remaining at 0.5 h, 1 µM / remaining at 1 h, 1 µM: mouse; for remaining at 10 min, 1 µM: T=10 min; for remaining at 20 min, 1 µM: T=20 min; for remaining at 0.5 h, 1 µM: T=30 min, 30 min; for remaining at 1 h, 1 µM: T=60 min, 60 min
[8] = Mouse liver microsome stability in the absence of cofactors (NCF); settings: 60 min, no cofactor (NCF); for Raw data: analyte peak area, T=60 NCF: mouse liver microsomes, raw LC-MS area; for remaining at 1 h, 1 µM: mouse, microsomes, pH 7.4, % Remaining, T=60 NCF
[9] = average of n=2, 10µM, PBS pH 7.4/7.4, 6h at room temperature
[10] = mouse liver microsomes, replicate 1 (left block)
[11] = mouse liver microsomes, replicate 2 (right block)
[12] = n=1, mouse liver microsomes, n=1
[13] = n=2, mouse liver microsomes, n=2

T1 sequence (Q02127 whole entry): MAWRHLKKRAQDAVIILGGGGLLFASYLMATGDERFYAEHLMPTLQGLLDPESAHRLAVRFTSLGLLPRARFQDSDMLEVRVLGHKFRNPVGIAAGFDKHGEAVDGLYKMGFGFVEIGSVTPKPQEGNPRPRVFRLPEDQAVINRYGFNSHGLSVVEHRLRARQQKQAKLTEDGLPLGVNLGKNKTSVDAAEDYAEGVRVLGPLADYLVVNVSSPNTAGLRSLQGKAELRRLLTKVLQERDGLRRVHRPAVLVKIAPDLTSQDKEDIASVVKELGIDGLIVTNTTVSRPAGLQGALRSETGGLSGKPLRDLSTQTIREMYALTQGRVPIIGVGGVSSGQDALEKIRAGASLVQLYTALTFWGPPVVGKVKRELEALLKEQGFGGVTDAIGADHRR

O=C1NC(=O)C(=C/C=C/c2ccccc2)C(=O)N1 [2i, (E)-5-(3-Phenylallylidene)pyrimidine-2,4,6(1H,3H,5H)-trione]
inhibition of HsDHODH in single-dose assays ([1]; 100 μM, with or without 4-h incubation): no inhibition
activity at 100 µM ([1]; read-out: Single dose (0h) % activity): 93 ± 11%
activity at 100 µM ([1]; read-out: Single dose (4h) % activity): 91 ± 9%
EC50 [2]: 10.5 ± 3.5 µM
EC50 ([2]; Leishmania braziliensis): 11 ± 5 µM
CC50 at 72 h [3]: 193 ± 67 µM
recovery at 6 h, 10 µM ([4]; PAMPA, pH 7.4, % Recovery n=1, replicate n=1, 10µM, PBS pH 7.4/7.4, 6h at room temperature): 14.3%
recovery at 6 h, 10 µM ([4]; PAMPA, pH 7.4, % Recovery n=2, replicate n=2, 10µM, PBS pH 7.4/7.4, 6h at room temperature): 15.8%
recovery at 6 h, 10 µM ([4]; PAMPA, pH 7.4, Avg % Recovery, average of n=2, 10µM, PBS pH 7.4/7.4, 6h at room temperature): 15%
Papp ([4]; PAMPA, pH 7.4, permeability, PBS pH 7.4, 10 μM, 6 h): 57.5 nm/s
Avg Log Pe (cm/sec) [4, 9]: -5.2 cm/sec and -5.24 cm/sec
Avg Pe [4, 9]: 57.5 nm/s and 57.50 nm/s
LogPe (cm/sec) n1 ([4]; replicate n1, calculation section, 10µM, PBS pH 7.4/7.4, 6h): -5.25 cm/sec
LogPe (cm/sec) n2 ([4]; replicate n2, calculation section, 10µM, PBS pH 7.4/7.4, 6h): -5.23 cm/sec
Pe (nm/sec) n=1 ([4]; replicate n=1, 10µM (5% DMSO), PBS pH 7.4/7.4, 6h at room temperature, LC-MS/MS): 56.6 nm/s and 56.58 nm/s
% Recovery n=1 ([4]; replicate n=1, 10µM, PBS pH 7.4/7.4, 6h at room temperature): 14.26%
Pe (nm/sec) n=2 ([4]; replicate n=2, 10µM (5% DMSO), PBS pH 7.4/7.4, 6h at room temperature, LC-MS/MS): 58.4 nm/s and 58.42 nm/s
% Recovery n=2 ([4]; replicate n=2, 10µM, PBS pH 7.4/7.4, 6h at room temperature): 15.77%
solubility kinetic at 2 h ([5]; 25 °C, pH 7.4, aqueous buffer, PBS pH 7.4, 200 μM test conc, 2 h at 25 °C): 41.4 µM (≈ 10 µg/mL)
solubility at 2 h ([5]; aqueous buffer, PBS pH 7.4, 200 µM, 2 hours at 25°C): 0.01 mg/mL (≈ 41.3 µM)
Calculated T-half (min), Average ([6]; mouse liver microsomes (CD1 male), 0.4 mg/ml protein, test conc 1 µM, average of n=1 and n=2): 2.7 min
Calculated T-half (min), n=1 ([6]; mouse liver microsomes (CD1 male), 0.4 mg/ml protein, test conc 1 µM, replicate n=1): 2.74 min and 2.7 min
Calculated T-half (min), n=2 ([6]; mouse liver microsomes (CD1 male), 0.4 mg/ml protein, test conc 1 µM, replicate n=2): 2.73 min and 2.7 min
Raw data: analyte peak area, T=0 [6, 10]: 4760
Raw data: analyte peak area, T=0 [6, 11]: 4151
Modified T-half (min), Average ([6]; mouse liver microsomes, 0.4 mg/ml, 1 µM, average, limited to T Half range 3.00 - […]): <3.0 min
Remarks (mouse microsomal stability study) ([6]; mouse liver microsomes, 0.4 mg/ml, 1 µM, NCF = no cofactor control): Very fast metabolism; Low NCF
Raw data: analyte peak area, T=5 [6, 10]: 1438
Raw data: analyte peak area, T=5 [6, 11]: 1160
Raw data: analyte peak area, T=10 [6, 10]: 0
Raw data: analyte peak area, T=10 [6, 11]: 0
Raw data: analyte peak area, T=20 [6, 10]: 0
Raw data: analyte peak area, T=20 [6, 11]: 0
Raw data: analyte peak area, T=30 [6, 10]: 0
Raw data: analyte peak area, T=30 [6, 11]: 0
Raw data: analyte peak area, T=60 [6, 10]: 0
Raw data: analyte peak area, T=60 [6, 11]: 0
mouse liver microsomes T-half ([6]; mouse liver microsomes, NADPH, 1 μM): <3.0 min
microsomal CLint at 1 μM ([7]; pH 7.4): > 578 µL/min/mg
remaining at 5 min, 1 μM [7, 12]: 28.2%
remaining at 5 min, 1 μM [7, 13]: 28.1%
microsomal CLint at 1 μM ([7]; pH 7.4, mouse liver microsomes CLint, app, mouse liver microsomes, NADPH, 1 μM): > 578 µL/min/mg
remaining at 10 min, 1 µM [7, 12]: 0%
remaining at 10 min, 1 µM [7, 13]: 0%
remaining at 20 min, 1 µM [7, 12]: 0%
remaining at 20 min, 1 µM [7, 13]: 0%
remaining at 0.5 h, 1 µM [7, 12]: 0%
remaining at 0.5 h, 1 µM [7, 13]: 0%
remaining at 1 h, 1 µM [7, 12]: 0%
remaining at 1 h, 1 µM [7, 13]: 0%
Raw data: analyte peak area, T=60 NCF ([8]; replicate 1 (left block)): 1230
Raw data: analyte peak area, T=60 NCF ([8]; replicate 2 (right block)): 835
remaining at 1 h, 1 µM [8, 12]: 26.3%
remaining at 1 h, 1 µM [8, 13]: 19.3%
